# Data from PubChem BioAssay (NCI).
#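 Interpolation was linear, between the two tested concentrations surrounding the appropriate level; five concentrations were tested over 48 hours in 96-well plates. The concentration for full growth arrest is given as TGI.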
# Experiments:
# Assay in all cases: growth of human tumour cells (NCI), 48 h
# [1] = test system: HS 578T breast
# [2] = test system: COLO 205 colon
# [3] = test system: PC-3 prostate
# [4] = test system: MCF7 breast
# [5] = test system: OVCAR-8 ovarian
# [6] = test system: U251 CNS
# [7] = test system: IGROV1 ovarian
# [8] = test system: SN12C renal
# [9] = test system: KM12 colon
# [10] = test system: SNB-75 CNS
# [11] = test system: MDA-MB-435
# [12] = test system: HT29 colon
# [13] = test system: HOP-62 NSCLC
# [14] = test system: HCT-15 colon
# [15] = test system: T-47D breast
# [16] = test system: SK-MEL-28 melanoma
# [17] = test system: ACHN renal
# [18] = test system: UO-31 renal
# [19] = test system: UACC-257 melanoma
# [20] = test system: HL-60(TB) leukemia
# [21] = test system: SF-295 CNS
# [22] = test system: NCI-H23 lung
# [23] = test system: SW-620 colon
# [24] = test system: SK-OV-3 ovarian
# [25] = test system: NCI-H522 lung
# [26] = test system: A549 NSCLC
# [27] = test system: RPMI-8226 leukemia
# [28] = test system: MOLT-4 leukemia
# [29] = test system: UACC-62 melanoma
# [30] = test system: NCI-H226 lung
# [31] = test system: HCC-2998 colon
# [32] = test system: OVCAR-4 ovarian
# [33] = test system: 786-0 renal
# [34] = test system: CCRF-CEM leukemia
# [35] = test system: K-562 leukemia
# [36] = test system: HCT-116 colon
# [37] = test system: SK-MEL-2 melanoma
# [38] = test system: CAKI-1 renal
# [39] = test system: MDA-N
# [40] = test system: TK-10 renal
# [41] = test system: RXF 393 renal
# [42] = test system: M14 melanoma
# [43] = test system: EKVX NSCLC
# [44] = test system: OVCAR-5 ovarian
# [45] = test system: SR leukemia
# [46] = test system: NCI/ADR-RES ovarian
# [47] = test system: DU-145 prostate
# [48] = test system: BT-549 breast
# [49] = test system: LOX IMVI melanoma
# [50] = test system: HOP-92 NSCLC
# [51] = test system: SNB-19 CNS
# [52] = test system: MDA-MB-231 breast
# [53] = test system: SF-268 CNS
# [54] = test system: MALME-3M melanoma
# [55] = test system: SF-539 CNS
# [56] = test system: SK-MEL-5 melanoma
# [57] = test system: A498 renal
# [58] = test system: OVCAR-3 ovarian
# [59] = test system: NCI-H460 lung
smiles,measurement,setting,value
O=S(=O)(O)c1ccc(Nc2ccnc3ccccc23)cc1,TGI,[1],> 100 µM
same,TGI,[2],> 100 µM
same,TGI,[3],> 100 µM
same,TGI,[4],> 100 µM
same,TGI,[5],> 100 µM
same,TGI,[6],> 100 µM
same,TGI,[7],> 100 µM
same,TGI,[8],> 100 µM
same,TGI,[9],> 100 µM
same,TGI,[10],> 100 µM
same,TGI,[11],> 100 µM
same,TGI,[12],> 100 µM
same,TGI,[13],> 100 µM
same,TGI,[14],> 100 µM
same,TGI,[15],> 100 µM
same,TGI,[16],> 100 µM
same,TGI,[17],> 100 µM
same,TGI,[18],> 100 µM
same,TGI,[19],> 100 µM
same,TGI,[20],> 100 µM
same,TGI,[21],> 100 µM
same,TGI,[22],> 100 µM
same,TGI,[23],> 100 µM
same,TGI,[24],> 100 µM
same,TGI,[25],> 100 µM
same,TGI,[26],> 100 µM
same,TGI,[27],> 100 µM
same,TGI,[28],> 100 µM
same,TGI,[29],> 100 µM
same,TGI,[30],> 100 µM
same,TGI,[31],> 100 µM
same,TGI,[32],> 100 µM
same,TGI,[33],> 100 µM
same,TGI,[34],> 100 µM
same,TGI,[35],> 100 µM
same,TGI,[36],> 100 µM
same,TGI,[37],> 100 µM
same,TGI,[38],> 100 µM
same,TGI,[39],> 100 µM
same,TGI,[40],> 100 µM
same,TGI,[41],> 100 µM
same,TGI,[42],> 100 µM
same,TGI,[43],> 100 µM
same,TGI,[44],> 100 µM
same,TGI,[45],> 100 µM
same,TGI,[46],> 100 µM
same,TGI,[47],> 100 µM
same,TGI,[48],> 100 µM
same,TGI,[49],> 100 µM
same,TGI,[50],> 100 µM
same,TGI,[51],> 100 µM
same,TGI,[52],> 100 µM
same,TGI,[53],> 100 µM
same,TGI,[54],> 100 µM
same,TGI,[55],> 100 µM
same,TGI,[56],> 100 µM
same,TGI,[57],> 100 µM
O=C(NNC(=S)Nc1ccc(Cl)cc1)C12CC3CC(CC(C3)C1)C2,TGI,[1],83 µM
same,TGI,[2],18.3 µM
same,TGI,[3],19.2 µM
same,TGI,[4],> 56.5 µM
same,TGI,[5],> 44.6 µM
same,TGI,[6],24.8 µM
same,TGI,[7],33.1 µM
same,TGI,[8],28.7 µM
same,TGI,[9],> 51.6 µM
same,TGI,[10],51.1 µM
same,TGI,[11],37.8 µM
same,TGI,[58],10.6 µM
same,TGI,[12],21.4 µM
same,TGI,[13],29.7 µM
same,TGI,[14],42.5 µM
same,TGI,[15],41.4 µM
same,TGI,[16],60.8 µM
same,TGI,[17],29 µM
same,TGI,[18],19 µM
same,TGI,[19],> 57.3 µM
same,TGI,[20],5.48 µM
same,TGI,[21],26.6 µM
same,TGI,[22],54.7 µM
same,TGI,[23],35.6 µM
same,TGI,[24],64.7 µM
same,TGI,[25],20.2 µM
same,TGI,[26],24.9 µM
same,TGI,[27],2.28 µM
same,TGI,[28],10.7 µM
same,TGI,[29],21.8 µM
same,TGI,[30],31.6 µM
same,TGI,[31],27 µM
same,TGI,[32],54.5 µM
same,TGI,[33],> 58 µM
same,TGI,[34],11.6 µM
same,TGI,[35],> 37.9 µM
same,TGI,[36],9.26 µM
same,TGI,[37],38.2 µM
same,TGI,[38],49.5 µM
same,TGI,[59],24.5 µM
same,TGI,[39],43.6 µM
same,TGI,[40],70.8 µM
same,TGI,[41],48.6 µM
same,TGI,[42],26.6 µM
same,TGI,[43],55 µM
same,TGI,[44],81.1 µM
same,TGI,[45],4.83 µM
same,TGI,[46],14.8 µM
same,TGI,[47],43.6 µM
same,TGI,[48],39.4 µM
same,TGI,[49],19 µM
same,TGI,[50],56.7 µM
same,TGI,[51],> 79.2 µM
same,TGI,[52],19.6 µM
same,TGI,[53],32 µM
same,TGI,[54],47.4 µM
same,TGI,[55],14.3 µM
same,TGI,[56],15.5 µM
same,TGI,[57],22.9 µM
O=C(c1cc(Cl)cc(Cl)c1)N(Cc1cccnc1)C(=S)N(Cc1cccnc1)C(=O)c1cc(Cl)cc(Cl)c1,TGI,[1],> 100 µM
same,TGI,[2],38.5 µM
same,TGI,[3],60.6 µM
same,TGI,[4],> 100 µM
same,TGI,[5],79.5 µM
same,TGI,[6],61.3 µM
same,TGI,[8],> 100 µM
same,TGI,[9],> 100 µM
same,TGI,[10],> 100 µM
same,TGI,[11],> 100 µM
same,TGI,[58],61.6 µM
same,TGI,[12],> 100 µM
same,TGI,[13],75.1 µM
same,TGI,[14],83.3 µM
same,TGI,[15],> 100 µM
same,TGI,[16],> 100 µM
same,TGI,[17],47.3 µM
same,TGI,[18],56.2 µM
same,TGI,[19],> 100 µM
same,TGI,[20],90 µM
same,TGI,[21],> 100 µM
same,TGI,[22],> 100 µM
same,TGI,[23],> 100 µM
same,TGI,[24],> 100 µM
same,TGI,[25],49 µM
same,TGI,[26],> 100 µM
same,TGI,[27],> 100 µM
same,TGI,[28],> 100 µM
same,TGI,[29],> 100 µM
same,TGI,[30],> 100 µM
same,TGI,[31],49.6 µM
same,TGI,[32],89.6 µM
same,TGI,[33],73.8 µM
same,TGI,[34],> 100 µM
same,TGI,[35],> 100 µM
same,TGI,[36],96.5 µM
same,TGI,[37],99.2 µM
same,TGI,[38],> 100 µM
same,TGI,[59],> 100 µM
same,TGI,[39],> 100 µM
same,TGI,[40],89.6 µM
same,TGI,[41],92.7 µM
same,TGI,[42],72 µM
same,TGI,[43],> 100 µM
same,TGI,[44],> 100 µM
same,TGI,[45],> 100 µM
same,TGI,[46],> 100 µM
same,TGI,[47],> 100 µM
same,TGI,[48],81.5 µM
same,TGI,[49],> 100 µM
same,TGI,[50],> 100 µM
same,TGI,[51],> 100 µM
same,TGI,[52],71.5 µM
same,TGI,[53],> 100 µM
same,TGI,[54],> 100 µM
same,TGI,[55],51.4 µM
same,TGI,[56],76 µM
same,TGI,[57],81.2 µM
O=[N+]([O-])c1ccc(NNN=Nc2ccc(-c3nc4ccccc4[nH]3)cc2)c([N+](=O)[O-])c1,TGI,[1],> 100 µM
same,TGI,[2],> 100 µM
same,TGI,[3],> 100 µM
same,TGI,[4],57.6 µM
same,TGI,[5],> 100 µM
same,TGI,[6],> 100 µM
same,TGI,[7],> 100 µM
same,TGI,[8],> 100 µM
same,TGI,[9],> 100 µM
same,TGI,[10],> 100 µM
same,TGI,[11],> 100 µM
same,TGI,[58],> 100 µM
same,TGI,[12],> 100 µM
same,TGI,[13],> 100 µM
same,TGI,[14],> 100 µM
same,TGI,[15],> 100 µM
same,TGI,[16],> 100 µM
same,TGI,[17],> 100 µM
same,TGI,[18],> 100 µM
same,TGI,[19],> 100 µM
same,TGI,[20],> 100 µM
same,TGI,[21],> 100 µM
same,TGI,[22],> 100 µM
same,TGI,[23],> 100 µM
same,TGI,[24],> 100 µM
same,TGI,[25],61 µM
same,TGI,[26],> 100 µM
same,TGI,[28],> 100 µM
same,TGI,[29],38 µM
same,TGI,[30],> 100 µM
same,TGI,[31],> 100 µM
same,TGI,[32],> 100 µM
same,TGI,[33],> 100 µM
same,TGI,[34],> 100 µM
same,TGI,[35],79.7 µM
same,TGI,[36],> 100 µM
same,TGI,[37],88.6 µM
same,TGI,[38],> 100 µM
same,TGI,[59],> 100 µM
same,TGI,[39],> 100 µM
same,TGI,[40],> 100 µM
same,TGI,[41],> 100 µM
same,TGI,[42],> 100 µM
same,TGI,[43],96.4 µM
same,TGI,[44],> 100 µM
same,TGI,[45],> 100 µM
same,TGI,[46],> 100 µM
same,TGI,[47],> 100 µM
same,TGI,[48],> 100 µM
same,TGI,[49],> 100 µM
same,TGI,[50],> 100 µM
same,TGI,[51],> 100 µM
same,TGI,[52],> 100 µM
same,TGI,[53],> 100 µM
same,TGI,[54],> 100 µM
same,TGI,[55],> 100 µM
same,TGI,[56],87.5 µM
same,TGI,[57],89.5 µM
